These results are taken from patent US20240390388A1, “TRICYCLIC COMPOUNDS AND USE THEREOF” (MEDSHINE DISCOVERY INC., priority 2021, published 2024).

The target in one series is T1, PI3K α (Homo sapiens, UniProt P42336).
T1 construct: purchased Millipore 14-602-K
In words: Enzyme activity test in vitro (ADP-Glo lipid kinase), PI3K α. In kind it is biochemical. As to conditions: ATP 40 μM, 120 min. Here is the method: (§1) The lipid kinase reaction was carried out under the conditions of the appropriate substrate and ATP. Then the kinase activity was tested with the ADP-Glo™ kit in two steps. Step 1: The kinase reaction was terminated, in which residual ATP was completely removed, and only ADP was remained; Step 2: Kinase test reagent was added to convert ADP into ATP, accompanied by luciferin/luciferase reaction. Finally, the […] numerical output value was converted into kinase activity.
(§2) b) Kit: ADP-Glo™ Lipid Kinase and PIP2: 3PS Kit (Promega #V1792)
(§3) b) Final test system conditions: 1× reaction system: 50 mM HEPES, 50 mM NaCl, 3 mM MgCl2, 0.01% BSA (freshly prepared on the day of the experiment), 1% DMSO (v/v) +/−compound
(§4) c) Reaction system: 3 μL mixture of enzyme and substrate (1:1)+2 μL ATP/MgCl2 mixture +5 μL ADP-Glo reagent+10 μL assay reagent.
(§5) a) Compound dilution: 50 nL of 100× compound/DMSO was transferred to the test well plate with Echo
For PI3K α, the compounds were diluted three-fold from the highest concentration of 0.111 mM for a total of 10 concentrations.
(§6) (1) The compound to be tested was prepared. 50 nL of […] compound solution or DMSO was added to the corresponding well plate. […]
(§7) (16) Fluorescence values were measured on an Envision instrument.
(ADP-Glo first removes unused ATP, then detects ADP through luciferase.)

The target of another series is T2, PI3K β (Homo sapiens, UniProt P42338).
T2 construct: purchased Promega V1751
The series can be described thus: Enzyme activity test in vitro (ADP-Glo lipid kinase), PI3K β. In kind it is biochemical. As to conditions: ATP 40 μM, 120 min. How it is done:
as §1, §2, §3, §4, §5
(§8) For PI3K β/PI3K δ/PI3K γ, the compounds were diluted three-fold from the highest concentration of 1.11 mM for a total of 10 concentrations.
as §6, §7

The target of another series is T3, PI3K δ (Homo sapiens, UniProt O00329).
T3 construct: purchased Millipore 14-604-K
The series can be described thus: Enzyme activity test in vitro (ADP-Glo lipid kinase), PI3K δ. In kind it is biochemical. As to conditions: ATP 40 μM, 120 min. Here is the method:
as §1, §2, §3, §4, §5, §8, §6, §7

Another series concerns the target T4, PI3K γ (Homo sapiens, UniProt P48736).
T4 construct: purchased Millipore 14-558-K
The series can be described thus: Enzyme activity test in vitro (ADP-Glo lipid kinase), PI3K γ. Type of series: biochemical. As to conditions: ATP 25 μM, 120 min. How it is done:
as §1, §2, §3, §4, §5, §8, §6, §7

Series [1] deals with HCC1954 cells with PIK3CA mutation. The series can be described thus: Cell activity test in vitro, anti-proliferation by CTG method, HCC1954. In kind it is cell-based. The settings on record: 72 hours.
Procedure: By CTG method, the effect of the compound to be tested on the anti-proliferation activity of cells was determined in two cell lines, HCC1954 and HDQ-P1.
(1) HCC1954 and HDQ-P1 cells (ATCC® HTB-22™) were inoculated into 96-well plates, respectively, with 100 μL of cell complete medium per well (4000 cells/HDQ-P1 per well, 3500 cells/HCC1954 per well). Cells were cultured at 37° C., 5% CO2 for 24 hours.
(2) The cell complete medium was replaced by 100 μL of serum-free medium. The cells were starved overnight.
(3) Compounds were prepared (the starting concentration of the compound was 10 μM, and diluted 3-fold for 8 concentrations. Each concentration of the compound was then diluted 100-fold with serum-free medium), and 25 μL of the diluted compound was added to the plate containing the cells.
(4) The well plate was incubated at 37° C., 5% CO2 for 72 hours (HCC1954) or 120 hours (HDQ-P1).
(5) Subsequent operations were performed according to the instructions of the Promega CTG kit.
In a further series the test system is MDR1. The series can be described thus: MDCK-MDR1 permeability test. As to conditions: dog, pH 7.4, 2.5 hours. In kind it is in vitro ADME.
Series [2] is described as follows: In vivo DMPK study in male CD-1 mice. The source says: Experimental purpose: Male CD-1 mice were used as test animals to determine plasma concentrations of compounds after a single administration and evaluate pharmacokinetic behavior.
Experimental operation: 8 healthy adult male CD-1 mice were selected, 4 for the intravenous injection group and 4 for the oral administration group. The compound to be tested was mixed with an appropriate amount of the solvent (DMSO/solvent/water (10:10:80 v/v/v)) for the intravenous injection group. The mixture solution was vortexed and sonicated to prepare a 1.0 mg/mL clear solution, which was filtered through a microporous membrane for further use. For the oral administration group, the solvent was DMSO/solvent/water (10:10:80 v/v/v). After the compound to be tested was mixed with the solvent, the mixture solution was vortexed and sonicated to prepare a 1.0 mg/mL homogeneous suspension for further use. After 1 mg/kg intravenous administration or 3 mg/kg oral administration in mice, whole blood was collected for a certain period of time to prepare plasma, and the drug concentration was analyzed by LC-MS/MS method, then the pharmacokinetic parameters were calculated using Phoenix WinNonlin software (Pharsight, USA).

Series [3] is described as follows: In vivo plasma/brain tissue distribution study in male SD rats. As to conditions: oral 10 mpk. The source says:
Experimental purpose: Male SD rats were used as test animals to determine plasma concentrations of compounds and drug concentrations of brain tissue and cerebrospinal fluid after a single administration, and to evaluate the brain entry of the compound of the present disclosure.
Experimental operation: 12 healthy adult male SD rats were selected. The compound to be tested was mixed with an appropriate amount of solvent (DMSO/solvent/water (10:10:80 v/v/v)) for the oral administration group. The mixture was vortexed and sonicated to prepare a 1.0 mg/mL clear solution for further use. After oral administration of 10 mg/kg to rats, whole blood, brain tissue, and cerebrospinal fluid for a certain period of time were collected to prepare plasma, brain homogenate, and cerebrospinal fluid. The drug concentration was analyzed by LC-MS/MS method, and the pharmacokinetic parameters were calculated by Phoenix WinNonlin software (Pharsight, USA).

A short description of series [4]: Rat plasma-protein binding. Type of series: in vitro ADME.

Where two headings read alike, the source gives them in different places.

T3 sequence (O00329 whole entry): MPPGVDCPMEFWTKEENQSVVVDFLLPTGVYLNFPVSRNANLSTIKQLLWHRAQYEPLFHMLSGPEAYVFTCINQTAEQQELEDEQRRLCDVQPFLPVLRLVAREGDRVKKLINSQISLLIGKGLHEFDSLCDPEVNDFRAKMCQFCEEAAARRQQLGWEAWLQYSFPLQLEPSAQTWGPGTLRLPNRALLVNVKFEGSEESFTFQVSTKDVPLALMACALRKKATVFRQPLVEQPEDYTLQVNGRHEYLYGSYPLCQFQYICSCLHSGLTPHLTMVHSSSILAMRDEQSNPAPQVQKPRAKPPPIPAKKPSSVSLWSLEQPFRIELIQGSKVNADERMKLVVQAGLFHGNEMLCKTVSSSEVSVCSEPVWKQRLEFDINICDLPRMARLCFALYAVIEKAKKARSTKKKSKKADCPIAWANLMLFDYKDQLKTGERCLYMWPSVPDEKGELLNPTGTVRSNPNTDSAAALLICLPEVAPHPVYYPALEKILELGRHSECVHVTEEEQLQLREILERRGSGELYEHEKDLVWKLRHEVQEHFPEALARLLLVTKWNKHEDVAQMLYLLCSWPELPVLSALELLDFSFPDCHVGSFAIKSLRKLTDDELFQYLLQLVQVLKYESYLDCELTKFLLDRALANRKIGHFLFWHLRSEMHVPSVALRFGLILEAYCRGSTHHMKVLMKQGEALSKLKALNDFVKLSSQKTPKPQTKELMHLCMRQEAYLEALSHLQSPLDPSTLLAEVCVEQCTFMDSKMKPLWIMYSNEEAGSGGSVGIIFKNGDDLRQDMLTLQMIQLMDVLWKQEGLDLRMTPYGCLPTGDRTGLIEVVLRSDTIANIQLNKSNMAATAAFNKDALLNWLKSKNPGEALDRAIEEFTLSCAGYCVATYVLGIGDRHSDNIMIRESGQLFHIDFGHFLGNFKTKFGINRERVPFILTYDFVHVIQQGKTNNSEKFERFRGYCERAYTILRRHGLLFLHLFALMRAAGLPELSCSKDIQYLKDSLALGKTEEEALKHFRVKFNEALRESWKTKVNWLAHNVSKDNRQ
T3 sequence (P27986 whole entry partner): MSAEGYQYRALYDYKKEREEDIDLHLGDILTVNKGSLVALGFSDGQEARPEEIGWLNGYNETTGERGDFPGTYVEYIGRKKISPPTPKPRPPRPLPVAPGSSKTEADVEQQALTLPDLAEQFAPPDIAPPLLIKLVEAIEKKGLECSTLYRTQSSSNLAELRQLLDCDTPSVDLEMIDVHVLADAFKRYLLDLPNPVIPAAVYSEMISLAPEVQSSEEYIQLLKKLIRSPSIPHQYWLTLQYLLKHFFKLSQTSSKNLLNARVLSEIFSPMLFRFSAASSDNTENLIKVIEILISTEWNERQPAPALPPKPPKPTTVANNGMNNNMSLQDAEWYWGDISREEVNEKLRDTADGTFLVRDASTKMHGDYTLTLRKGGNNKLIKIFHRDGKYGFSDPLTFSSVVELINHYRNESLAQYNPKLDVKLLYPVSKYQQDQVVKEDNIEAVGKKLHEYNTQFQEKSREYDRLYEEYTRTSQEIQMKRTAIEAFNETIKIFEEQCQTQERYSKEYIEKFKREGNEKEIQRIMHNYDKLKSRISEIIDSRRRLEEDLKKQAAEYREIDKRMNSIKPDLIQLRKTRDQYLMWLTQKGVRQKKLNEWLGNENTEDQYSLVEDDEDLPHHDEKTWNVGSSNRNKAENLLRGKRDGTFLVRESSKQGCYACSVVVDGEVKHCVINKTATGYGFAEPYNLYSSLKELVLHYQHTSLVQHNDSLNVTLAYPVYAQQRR
T4 sequence (P48736 whole entry): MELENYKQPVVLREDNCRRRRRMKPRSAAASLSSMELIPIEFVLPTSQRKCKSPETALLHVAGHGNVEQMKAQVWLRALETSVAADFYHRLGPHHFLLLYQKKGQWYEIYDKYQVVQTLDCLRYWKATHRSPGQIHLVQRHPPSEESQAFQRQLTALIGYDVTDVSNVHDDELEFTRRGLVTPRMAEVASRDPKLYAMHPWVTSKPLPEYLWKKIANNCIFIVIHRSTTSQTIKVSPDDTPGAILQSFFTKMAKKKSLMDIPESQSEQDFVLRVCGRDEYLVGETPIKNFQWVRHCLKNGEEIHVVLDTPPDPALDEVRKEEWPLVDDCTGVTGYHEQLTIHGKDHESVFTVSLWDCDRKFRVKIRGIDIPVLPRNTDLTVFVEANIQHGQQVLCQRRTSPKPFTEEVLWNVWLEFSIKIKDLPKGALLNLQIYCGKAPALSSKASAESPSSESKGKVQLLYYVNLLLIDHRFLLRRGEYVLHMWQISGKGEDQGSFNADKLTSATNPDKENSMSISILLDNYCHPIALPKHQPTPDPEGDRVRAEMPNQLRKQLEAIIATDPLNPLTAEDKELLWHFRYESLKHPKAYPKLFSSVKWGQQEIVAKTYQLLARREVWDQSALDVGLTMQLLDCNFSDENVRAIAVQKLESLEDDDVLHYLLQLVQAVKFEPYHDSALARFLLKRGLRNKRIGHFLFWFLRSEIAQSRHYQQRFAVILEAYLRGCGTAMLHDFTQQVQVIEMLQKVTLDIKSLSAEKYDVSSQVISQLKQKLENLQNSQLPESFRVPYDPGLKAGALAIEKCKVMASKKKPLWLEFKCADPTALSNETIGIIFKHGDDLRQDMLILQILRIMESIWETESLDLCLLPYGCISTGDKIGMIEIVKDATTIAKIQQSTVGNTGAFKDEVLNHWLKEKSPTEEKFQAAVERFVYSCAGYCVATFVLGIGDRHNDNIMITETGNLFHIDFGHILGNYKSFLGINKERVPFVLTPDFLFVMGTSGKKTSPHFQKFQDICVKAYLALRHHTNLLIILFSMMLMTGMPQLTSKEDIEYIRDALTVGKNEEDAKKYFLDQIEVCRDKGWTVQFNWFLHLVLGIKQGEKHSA
T2 sequence (P42338 whole entry): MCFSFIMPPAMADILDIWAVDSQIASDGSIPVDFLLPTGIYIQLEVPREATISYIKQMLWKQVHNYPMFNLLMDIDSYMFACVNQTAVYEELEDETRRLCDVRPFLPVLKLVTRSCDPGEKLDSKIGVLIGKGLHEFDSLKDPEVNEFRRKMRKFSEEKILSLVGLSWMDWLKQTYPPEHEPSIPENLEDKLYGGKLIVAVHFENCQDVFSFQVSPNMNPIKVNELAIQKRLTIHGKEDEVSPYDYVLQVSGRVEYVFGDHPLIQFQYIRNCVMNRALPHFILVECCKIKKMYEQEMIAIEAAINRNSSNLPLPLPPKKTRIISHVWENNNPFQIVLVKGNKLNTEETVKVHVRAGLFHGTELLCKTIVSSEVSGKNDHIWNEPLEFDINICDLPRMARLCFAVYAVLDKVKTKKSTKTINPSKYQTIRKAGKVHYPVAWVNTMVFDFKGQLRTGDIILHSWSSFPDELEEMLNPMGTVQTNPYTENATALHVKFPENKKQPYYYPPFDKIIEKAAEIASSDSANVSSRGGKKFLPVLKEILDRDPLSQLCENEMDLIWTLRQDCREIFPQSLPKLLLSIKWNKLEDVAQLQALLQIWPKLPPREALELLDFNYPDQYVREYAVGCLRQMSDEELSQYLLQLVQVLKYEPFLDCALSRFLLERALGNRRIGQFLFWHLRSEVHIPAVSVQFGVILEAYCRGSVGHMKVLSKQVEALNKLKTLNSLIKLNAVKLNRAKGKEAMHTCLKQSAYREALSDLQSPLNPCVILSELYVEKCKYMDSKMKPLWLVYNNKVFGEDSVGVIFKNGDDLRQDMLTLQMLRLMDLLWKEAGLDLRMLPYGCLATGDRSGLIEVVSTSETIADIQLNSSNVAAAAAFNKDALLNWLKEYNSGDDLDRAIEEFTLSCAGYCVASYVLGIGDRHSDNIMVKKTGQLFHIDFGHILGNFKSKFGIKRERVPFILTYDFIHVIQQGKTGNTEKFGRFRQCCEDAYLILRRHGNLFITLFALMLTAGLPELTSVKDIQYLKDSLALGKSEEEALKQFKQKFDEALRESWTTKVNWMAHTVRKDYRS
T2 sequence (P27986 whole entry partner): as the sequence (P27986 whole entry partner) above
T1 sequence (P42336 whole entry): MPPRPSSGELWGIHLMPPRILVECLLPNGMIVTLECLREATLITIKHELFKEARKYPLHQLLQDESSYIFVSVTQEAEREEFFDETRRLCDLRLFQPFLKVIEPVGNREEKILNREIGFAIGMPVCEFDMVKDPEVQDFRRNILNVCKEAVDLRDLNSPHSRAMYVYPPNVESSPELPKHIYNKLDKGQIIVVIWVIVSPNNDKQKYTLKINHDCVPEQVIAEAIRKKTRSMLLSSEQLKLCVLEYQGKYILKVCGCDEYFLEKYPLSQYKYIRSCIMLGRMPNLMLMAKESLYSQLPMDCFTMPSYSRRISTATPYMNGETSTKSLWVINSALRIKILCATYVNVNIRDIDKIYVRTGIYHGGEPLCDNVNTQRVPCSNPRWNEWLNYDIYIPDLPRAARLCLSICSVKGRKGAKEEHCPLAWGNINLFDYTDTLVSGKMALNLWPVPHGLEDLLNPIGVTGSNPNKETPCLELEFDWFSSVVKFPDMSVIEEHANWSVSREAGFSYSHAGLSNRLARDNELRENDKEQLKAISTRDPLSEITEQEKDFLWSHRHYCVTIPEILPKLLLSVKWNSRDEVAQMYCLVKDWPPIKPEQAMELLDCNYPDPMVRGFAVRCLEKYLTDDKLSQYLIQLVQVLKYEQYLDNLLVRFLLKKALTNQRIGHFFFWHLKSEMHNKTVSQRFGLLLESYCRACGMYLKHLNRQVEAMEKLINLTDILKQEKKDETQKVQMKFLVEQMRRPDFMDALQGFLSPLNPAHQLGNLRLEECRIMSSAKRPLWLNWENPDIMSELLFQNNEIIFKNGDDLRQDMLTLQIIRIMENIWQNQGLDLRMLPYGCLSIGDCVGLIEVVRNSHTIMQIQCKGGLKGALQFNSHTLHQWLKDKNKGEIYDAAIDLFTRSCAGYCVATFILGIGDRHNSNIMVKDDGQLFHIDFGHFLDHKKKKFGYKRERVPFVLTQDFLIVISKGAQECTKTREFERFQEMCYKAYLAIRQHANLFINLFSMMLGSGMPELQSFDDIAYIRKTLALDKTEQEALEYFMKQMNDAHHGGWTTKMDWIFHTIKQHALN
T1 sequence (P27986 whole entry partner): as the sequence (P27986 whole entry partner) above
Procedure for MDR1: Compounds in DMSO stock solution were diluted to 2 μM (DMSO<1%) with a transport buffer (HBSS with 10 mM Hepes, pH 7.4) and applied to the apical side or the basolateral side of the cell monolayer. Permeation of compounds from the A to B direction or from the B to A direction was determined in duplicate. The plate was incubated for 2.5 hours in a CO2 incubator at a temperature of 37+1° C. in a saturated humidity containing 5% CO2 without shaking. In addition, the efflux rate of each compound was also determined. Compounds were quantified by LC-MS/MS analysis based on the peak area ratio of analyte/IS.
After the transport assay, cell monolayer integrity was determined using the fluorescein exclusion test. The buffer was removed from the apical and basolateral chambers. Then 75 μL of 100 μM fluorescein transport buffer and 250 μL of transport buffer were added to the apical and basolateral chambers, respectively. The plate was incubated at 37° C., 5% CO2 and saturated humidity for 30 min without shaking. After 30 min of incubation, 20 μL of fluorescein sample was collected from the apical side, and 60 μL of transport buffer was added. An 80 μL of fluorescein sample was then collected from the basolateral side. Relative fluorescence units (RFU) of fluorescein were measured at 425/528 nm (excitation/emission) with an Envision microplate reader.

The IC50 is the point on the concentration scale where inhibition reaches its midpoint. A higher IC50 goes with weaker potency. A word on the Papp A→B: it is how fast a substance crosses the layer from the apical side. The term Papp B→A denotes how fast a substance crosses the layer from the basolateral side. A word on the Vd: it is a proportionality between amount in the body and measured concentration, not a real space. The term Cmax denotes the highest concentration seen after dosing. One may read the Tmax as the time from dosing to the highest level. As a reminder, the AUC is the area under the concentration-time curve, a measure of exposure. What is called fraction unbound is the share of the substance not bound to proteins or other matrix. Higher therefore signals weak binding. For the compound `C[C@H](Nc1ccc2c(c1)OCCn1cc(N3C(=O)OC[C@H]3C(F)F)nc1-2)C(N)=O` [GDC-0077], the IC50 at PI3K α was 0.00075 µM; on PI3K β, 0.852 µM; against PI3K δ it was 0.133 µM; at PI3K γ, 0.072 µM; in series [1], 0.101 µM. The compound further showed a Papp A→B at 2.5 h, 2 μM in the series with MDR1 of 1.99 ×10⁻⁶ cm/s. Further, in the series with MDR1, the Papp B→A at 2.5 h, 2 μM stood at 16 ×10⁻⁶ cm/s. Also, the “Oral DNAUC” value in series [2] (3 mg/kg oral administration) was 778 nM · h/mpk. Also, the clearance in [2] (male, CD-1, mouse, plasma, 1 mg/kg intravenous, read-out: Intravenous injection Cl) is 26.1 mL/min/kg. Besides, the half-life in series [2] (male, CD-1, mouse, plasma, 1 mg/kg intravenous, read-out: Intravenous injection T1/2 (converted)) is 1.2 h; in series [3] (male, SD, rat, 10 mg/kg, plasma, read-out: T1/2, Plasma (converted)) it was 1.32 h. Besides, in [2] (male, CD-1, mouse, plasma, 1 mg/kg intravenous, read-out: Intravenous injection Vd), the Vd stood at 1.09 L/kg. Also, the Cmax in series [2] (male, CD-1, mouse, plasma, 3 mg/kg oral administration) came out at 1760 nM; in [3] (male, SD, rat, 10 mg/kg, cerebrospinal fluid, read-out: Cmax, Cerebrospinal fluid) it was 60.4 nM; in [3] (male, SD, rat, 10 mg/kg, plasma, read-out: Cmax, Plasma), 1520 nM. Further, the bioavailability in [2] (male, CD-1, mouse, plasma, 3 mg/kg oral vs 1 mg/kg intravenous, read-out: Oral F %) came out at 50%. In addition, the Tmax in [3] (male, SD, rat, 10 mg/kg, brain tissue, read-out: Tmax, Brain tissue) stood at 1 h; in series [3] (male, SD, rat, 10 mg/kg, cerebrospinal fluid, read-out: Tmax, Cerebrospinal fluid), 1 h; in [3] (male, SD, rat, 10 mg/kg, plasma, read-out: Tmax, Plasma) it was 0.25 h. Besides, the AUC in [3] (male, SD, rat, 10 mg/kg, cerebrospinal fluid, read-out: AUC, Cerebrospinal fluid) stood at 0.128 µM·h; in [3] (male, SD, rat, 10 mg/kg, plasma, read-out: AUC, Plasma), 3.12 µM·h. In addition, the “AUC, Brain tissue” value in series [3] (brain tissue) is given as “ND, 342 nM * h”. In addition, the “Cmax, Brain tissue” value in series [3] (brain tissue) amounted to 147 nM. In [4], the fraction unbound turned out to be 0.515.
